Assay results as given in patent US12281093B2, “3-(1,2,3,6-tetrahydropyridin-2-YL) pyridine glutarate or a pharmaceutically acceptable solvate thereof” (PHILIP MORRIS PRODUCTS S.A., priority 2018, dated 2025).
Where two headings read alike, the source gives them in different places.

Assays:
[1] = Forced degradation trial by HPLC-UV; type: physicochemical; conditions: oxidized sample, 3% hydrogen peroxide added; T=0, 4 and 18 hours; only condition of acid, base, control, heat, oxidation with degradation
Description: For evaluation of stability by HPLC-UV, 200 μg/ml sample solution of anatabine and anatabine glutarate were prepared in duplicate by weighing approximately 10 mg and dissolving in 50 ml volumetric flask and bringing to the volume with deionized water. During the HPLC method optimization the run time and gradient have been adjusted for stability analysis. After the method optimization, a forced degradation trial was run to aid the planned stability assessment analysis by identifying any degradants or impurities present in the anatabine glutarate sample. The forced degradation trial analyzed samples under five conditions—acid, base, control, heat and oxidation—and were tested at T=0, 4 and 18 hours.

[2] = Stability assessment at accelerated conditions (40° C./75% RH, 7 days): visual, TGA, XRPD; type: physicochemical
Description: Anatabine glutarate was analyzed at T=0, and an aliquot subsequently stored in a glass vial with a screw cap lid at accelerated conditions (40° C./75% RH) in an incubator for 7 days prior to further analysis. […] The stored sample was also assessed at T=0 and again post T=7 days using TGA, XRPD and HPLC-UV.
Powder X-ray diffraction (XRPD) was performed on Bruker D8 Advance XRPD using 9 mm cavity and flat plate sample holders. Samples were prepared by coating them onto sample holders fitted with a zero background silicon wafer (5 1 0). Analysis was performed using a Cu Kα X-Ray source which operated at 40 kV at 40 mA and a Lynx Eye TM detector, all samples were analyzed over the range 2-40° 20.
Thermogravimetric Analysis (TGA) was performed on Perkin Elmer PYRIS 1 TGA using 40 μL aluminum pans (vented) in ceramic crucibles. The samples were heated from room temperature to 400° C. at 10° C./min (unless otherwise stated) under a stream of nitrogen gas.

[3] = Dynamic vapor sorption (DVS) testing; type: physicochemical; conditions: for mass gain between the starting weight and the end weight: DVS double cycle, final mass vs starting mass
Description: Anatabine glutarate (20 mg) was dispensed directly into a pre-weighed sample pan and transferred to the instrument (DVS1 Advantage). Double cycle 0-90-O-90-0% RH method with 10% RH steps was applied.
Dynamic vapor sorption (DVS) was performed on SMS DVS dynamic vapor sorption instrument using DVS control software v1.0.6.0. 30 mg of sample was weighed in stainless steel DVS basket before submitting for analysis. The samples were analyzed over the range of 0-90/RH with a maximum time of 6 hours per humidity stage. Each sample was exposed to a double cycle. Analysis was performed as a weight percent change from 0-90% RH with isothermal plots also being examined. XRPD analysis of all samples was performed post-DVS.
This indicates a gain of moisture.
This was further confirmed by an isotherm plot of this sample.
When comparing X-ray diffraction patterns of the sample before and after DVS a match was observed.

[4] = Ambient stability assessment, open Petri dish, 7 days; type: physicochemical; conditions: ambient conditions, open in a fume hood, T=0, 3 and 7 days
Description: For ambient stability assessment, anatabine glutarate (100 mg) was weighed into a clear glass Petri dish and retained at ambient conditions, open in a fume hood for 7 days. The stored sample was visually assessed at T=0, 3 and 7 days. No change in the color or any evidence of deliquescence were observed (FIG. 12).

[5] = in vivo; cited from earlier work
STAT3 and NFkB signaling = conditions: periphery and CNS, via regulation of STAT3 and NFkB signaling; cited from earlier work
nuclear factor κB (NFKB) = conditions: cited from earlier work
[6] = Hygroscopicity of comparative anatabine salts (handling observation); type: physicochemical
Description: Anatabine free base (160 mg, 1 mmol) was dissolved in anhydrous acetone (2.5 ml). To the formed solution was added a solution of anhydrous citric acid (192 mg, 1 mmol) in anhydrous acetone (3 ml, required sonication) with stirring under nitrogen. The mixture was stirred for 2 hours and then filtered under a blanket of nitrogen. The solid was washed with a small quantity of anhydrous acetone and dried in vacuo. A yield of 340 mg (96.6%) of anatabine citrate was achieved. […] Chemical structure and stoichiometry was confirmed by proton NMR. The solid form of the citrate contains captured acetone.

[7] = stored at 40° C./75% RH for 7 days

C1=CCC(c2cccnc2)NC1 (centres unmarked) [anatabine glutarate, 3-(1,2,3,6-tetrahydropyridin-2-yl)pyridine glutarate]
degradation by peak area (HPLC-UV) [1]: > 1%
visual assessment: color or evidence of deliquescence ([2]; 40° C./75% RH, glass vial with screw cap, T=0, 3 and 7 days): no change observed
TGA mass loss between 20-130° C. ([2]; T=7 days sample, 40° C./75% RH): 0.5%
TGA mass loss between 150° C. and 400° C. ([2]; T=7 days sample, 40° C./75% RH): 80%
evidence of degradation ([2]; accelerated conditions (40° C./75% RH) after 7 days): has not shown evidence of degradation
change in thermal stability [2, 7]: no change in thermal stability
change to the crystalline form (XRPD) [2, 7]: no change to the crystalline form
difference in TGA mass loss between T=0 and T=7 days ([2]; superposition of thermograms, 40° C./75% RH): 2%
mass gain on first sorption cycle ([3]; DVS 0-90% RH, first sorption cycle, majority of gain above 70% RH): 55%
mass gain in second sorption cycle ([3]; DVS 0-90% RH): 50%
mass gain in second sorption cycle ([3]; DVS 0-90% RH, listed as Anatabine glutarate): about 50%
mass gain between the starting weight and the end weight [3]: 5%
mass gain between the starting weight and the end weight ([3]; listed as Anatabine glutarate): about 5%
mass loss on first desorption cycle ([3]; DVS first desorption cycle): about 50%
mass above the starting mass after first desorption ([3]; DVS, end of first desorption): 5%
crystal form before and after DVS (XRPD comparison) ([3]; sample left overnight after DVS, recrystallized into a solid form): identical
visual assessment: color or evidence of deliquescence [4]: No change

C1=CCC(c2cccnc2)NC1 (centres unmarked) [anatabine, 3-[1,2,3,6-Tetrahydropyridin-2-yl]pyridine]
reversal of precipitated nicotine withdrawal [5]: does not reverse
rewarding effect in rodents trained to self-administer nicotine [5]: do not find anatabine to be rewarding
anti-inflammatory activity (STAT3 and NFkB signaling): has an anti-inflammatory activity
transcription mediated by nuclear factor κB (NFKB) (nuclear factor κB (NFKB)): reduces transcription

anatabine citrate
hygroscopicity [6]: extremely hygroscopic
hygroscopicity ([6]; listed as citrate): highly hygroscopic
